The record followed here is patent US20230145835A1, “Modulators of Alpha-4-beta-7 Integrin and MAdCAM” (48HD Biopharma Inc., priority 2021, published 2023).

SMILES strings stand for the structures. pIC50: −log10 of the molar value. Numbered stars: 1 amine (or outer) side, 2 acyl side, 3 side chain; on linkers, the order of the positions; unused ones are H or OH. Bridge positions count the residues as written; N and C are the ends. Square brackets hold non-standard residues; d marks the D form. Peptide text beside a SMILES is read from it. I, II: the chains in the order shown. X12 = NC(=O)CC[C@@H](N[*:1])C(=O)C[C@@H](Cc1cnc[nH]1)C(=O)[*:2]; CO(CH2CH2O)5CH2CH2CO = O=C(CCOCCOCCOCCOCCOCCC(=O)[*:2])[*:1]; X13 = O=C(/C=N/OCCCCCCOC1=CC(C[*:3])=CC(C[*:2])C1)[*:1]; X3 = O=C(/C=N/OCCCCCCOc1cc(C[*:2])cc(C[*:3])c1)[*:1]; dMet(O) = CS(=O)CC[C@@H](N)C(=O)O; aIle = CC[C@@H](C)[C@H](N)C(=O)O; tBuAla = CC(C)(C)C[C@H](N)C(=O)O; Cba = N[C@@H](CC1CCC1)C(=O)O; Nle = CCCC[C@H](N)C(=O)O

For orientation: pIC50 means the negative decadic logarithm of the IC50, by convention in mol/L.

For the test, the target named is T1, rh-integrin α4β7/LPAM-1 (Homo sapiens, UniProt P13612+P26010).
T1 sequence (P13612 34-977 limits assumed): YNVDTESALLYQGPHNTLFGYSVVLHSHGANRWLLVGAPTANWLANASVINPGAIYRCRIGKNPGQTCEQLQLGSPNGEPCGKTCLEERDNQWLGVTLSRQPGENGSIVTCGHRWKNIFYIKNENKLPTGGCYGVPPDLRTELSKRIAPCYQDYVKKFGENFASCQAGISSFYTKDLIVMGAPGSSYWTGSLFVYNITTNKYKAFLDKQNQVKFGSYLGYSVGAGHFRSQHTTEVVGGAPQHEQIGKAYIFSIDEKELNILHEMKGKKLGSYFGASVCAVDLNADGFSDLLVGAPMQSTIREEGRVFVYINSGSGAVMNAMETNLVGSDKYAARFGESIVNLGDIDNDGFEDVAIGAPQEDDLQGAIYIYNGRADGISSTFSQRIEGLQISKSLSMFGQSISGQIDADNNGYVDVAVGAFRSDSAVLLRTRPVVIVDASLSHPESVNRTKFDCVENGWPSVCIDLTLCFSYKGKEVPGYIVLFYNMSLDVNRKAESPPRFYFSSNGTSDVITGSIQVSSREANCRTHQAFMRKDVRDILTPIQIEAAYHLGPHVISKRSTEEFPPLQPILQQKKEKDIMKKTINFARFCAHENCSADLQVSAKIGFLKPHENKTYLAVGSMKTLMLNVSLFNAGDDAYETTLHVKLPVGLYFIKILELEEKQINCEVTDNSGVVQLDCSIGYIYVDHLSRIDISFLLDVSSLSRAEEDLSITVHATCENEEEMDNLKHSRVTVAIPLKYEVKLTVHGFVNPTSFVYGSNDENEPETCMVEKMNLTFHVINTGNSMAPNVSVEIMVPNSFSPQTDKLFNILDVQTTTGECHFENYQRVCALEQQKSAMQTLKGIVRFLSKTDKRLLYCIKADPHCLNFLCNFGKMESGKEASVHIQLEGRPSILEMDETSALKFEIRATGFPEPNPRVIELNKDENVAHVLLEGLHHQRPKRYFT
T1 sequence (P26010 20-723 limits assumed): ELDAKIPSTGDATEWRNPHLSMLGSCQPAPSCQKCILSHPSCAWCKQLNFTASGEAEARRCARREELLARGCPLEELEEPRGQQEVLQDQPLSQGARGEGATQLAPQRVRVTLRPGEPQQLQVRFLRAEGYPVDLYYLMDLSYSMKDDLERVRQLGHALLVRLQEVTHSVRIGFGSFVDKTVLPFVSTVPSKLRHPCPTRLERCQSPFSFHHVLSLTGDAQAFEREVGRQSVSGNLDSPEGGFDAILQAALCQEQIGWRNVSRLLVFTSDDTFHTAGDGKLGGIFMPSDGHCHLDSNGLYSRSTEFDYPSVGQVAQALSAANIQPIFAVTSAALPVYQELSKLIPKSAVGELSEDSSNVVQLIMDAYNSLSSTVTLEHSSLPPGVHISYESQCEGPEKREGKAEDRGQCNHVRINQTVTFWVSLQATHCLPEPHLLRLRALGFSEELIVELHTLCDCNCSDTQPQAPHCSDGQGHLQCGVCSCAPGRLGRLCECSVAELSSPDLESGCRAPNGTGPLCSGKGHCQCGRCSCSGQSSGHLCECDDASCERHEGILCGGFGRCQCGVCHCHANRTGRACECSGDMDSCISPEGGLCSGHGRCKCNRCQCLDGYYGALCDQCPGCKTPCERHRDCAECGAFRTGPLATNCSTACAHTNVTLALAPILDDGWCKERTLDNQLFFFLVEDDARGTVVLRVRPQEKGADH
In words: α4β7-MadCAM Competition ELISA (Example 4). The class given is binding. The note with it: Table 3 Representative compounds; inhibition of MAdCAM binding to coated α4β7; read-out: IC50. As to the method:
After washing with wash buffer, 200 μL assay buffer was added to each well and incubated for one hour at 28° C. After another wash with wash buffer, 100 μL of a MAdCAM and peptide mixture in assay buffer was added to each well and incubated for one hour at 28° C., followed by washing with wash buffer.
For the compound `CC[C@H](C)[C@@H]1NC(=O)[C@H](CC(=O)O)NC(=O)[C@H](CCSC)NC(=O)[C@@H]2CCCN2C(=O)[C@@H](NC(=O)[C@H](CCCNC(=N)N)NC(=O)[C@H](CO)NC(C)=O)CSSC[C@@H](C(=O)N[C@@H](CCCCNC(=O)CCOCCOCCOCCOCCOCCC(=O)NCCCC[C@H](NC(=O)[C@@H]2CSSC[C@H](NC(=O)[C@H](CCCNC(=N)N)NC(=O)[C@H](CO)NC(C)=O)C(=O)N3CCC[C@H]3C(=O)N[C@@H](CCSC)C(=O)N[C@@H](CC(=O)O)C(=O)N[C@@H]([C@@H](C)CC)C(=O)N[C@@H](C)C(=O)NCC(=O)N[C@@H](CCC(=O)O)C(=O)N2)C(N)=O)C(N)=O)NC(=O)[C@H](CCC(=O)O)NC(=O)CNC(=O)[C@H](C)NC1=O` [compound 49] (I: Ac-SRCPMDIAGECK-NH2 / II: Ac-SRCPMDIAGECK-NH2; disulfide I:3-I:11, II:3-II:11; linker I:12-II:12 via CO(CH2CH2O)5CH2CH2CO), the negative-log IC50 (pIC50) is 5.76. The figure for `CC(C)C[C@@H]1NC(=O)[C@@H]2CCCN2C(=O)[C@@H]2CSCc3cc(cc(c3)OCCCCCCO/N=C/C(=O)N[C@@H](CCCCN)C(=O)N2)CSC[C@@H](C(N)=O)NC(=O)[C@H](CO)NC(=O)[C@@H]2CCCN2C(=O)[C@H](C)NC(=O)[C@H](CC(=O)O)NC1=O` [compound 50, TSL6- SKCPLDAPSC] (KCPLDAPSC-NH2; linker N-2-9 via X3) is 5.76; for `CCCC[C@@H]1NC(=O)[C@@H]2CCCN2C(=O)[C@@H]2CSCc3cc(cc(c3)OCCCCCCO/N=C/C(=O)N[C@@H](CCCNC(=N)N)C(=O)N2)CSC[C@@H](C(N)=O)NC(=O)[C@H](CCC(=O)O)NC(=O)[C@H](CCC(N)=O)NC(=O)[C@H](Cc2c[nH]c3ccccc23)NC(=O)[C@H](CC2CCC2)NC(=O)[C@H](CC(=O)O)NC1=O` [compound 55, TSL6-SRCP{Nle}D {CbA}WQEC] (RCP[Nle]D[Cba]WQEC-NH2; linker N-2-10 via X3) it is 5.46; for `CC(C)(C)C[C@@H]1NC(=O)[C@H](CC(=O)O)NC(=O)[C@H](CC2CCC2)NC(=O)[C@@H]2CCCN2C(=O)[C@@H]2CSCc3cc(cc(c3)OCCCCCCO/N=C/C(=O)N[C@@H](CCCNC(=N)N)C(=O)N2)CSC[C@@H](C(N)=O)NC(=O)[C@H](CCC(=O)O)NC(=O)[C@H](CCC(N)=O)NC(=O)[C@H](Cc2c[nH]c3ccccc23)NC1=O` [compound 56, TSL6-SRCP{CbA}D {tBuAla}WQEC] (RCP[Cba]D[tBuAla]WQEC-NH2; linker N-2-10 via X3) it is 5.41. For `C[C@@H]1NC(=O)/C=N/OCCCCCCOC2=CC3=CC(CSC[C@H](NC1=O)C(=O)N[C@@H](C)C(=O)N[C@@H](Cc1c[nH]c4ccccc14)C(=O)N[C@@H](Cc1cnc[nH]1)C(=O)N[C@H](CCC(N)=O)C(=O)C[C@@H](Cc1cnc[nH]1)C(=O)N[C@@H](C)C(=O)N[C@H](C(N)=O)CSC3)C2` [compound 57, TSL6- SACAWHQHAC] (ACAWH[X12]AC-NH2; linker N-2-8 via X13) the value was 5.41; for `CC(C)[C@@H]1NC(=O)[C@H](CC(=O)O)NC(=O)[C@H](CC(C)(C)C)NC(=O)[C@@H]2CCCN2C(=O)[C@@H]2CSCc3cc(cc(c3)OCCCCCCO/N=C/C(=O)N[C@@H](CCCNC(=N)N)C(=O)N2)CSC[C@@H](C(N)=O)NC(=O)[C@H](CCC(=O)O)NC(=O)CNC(=O)[C@H](Cc2c[nH]c3ccccc23)NC1=O` [compound 58, TSL6- SRCP{tBuAla} DVWGEC] (RCP[tBuAla]DVWGEC-NH2; linker N-2-10 via X3), 5.40.

In the case of `CC(C)C[C@@H]1NC(=O)[C@H](C)NC(=O)[C@@H]2CSCc3cc(cc(c3)OCCCCCCO/N=C/C(=O)N[C@@H](CCCCN)C(=O)N2)CSC[C@@H](C(N)=O)NC(=O)[C@H](CO)NC(=O)[C@@H]2CCCN2C(=O)[C@H](C(C)C)NC(=O)[C@H](CC(=O)O)NC1=O` [compound 59, TSL6- SKCALDVPSC] (KCALDVPSC-NH2; linker N-2-9 via X3), the pIC50 was 5.40. On to `C[C@@H](O)[C@@H]1NC(=O)[C@H](Cc2ccccc2)NC(=O)[C@H](CCCCN)NC(=O)[C@H](CC(=O)O)NC(=O)[C@H](Cc2cnc[nH]2)NC(=O)[C@@H]2CSCc3cc(cc(c3)OCCCCCCO/N=C/C(=O)N[C@@H](CO)C(=O)N2)CSC[C@@H](C(N)=O)NC(=O)[C@H](CCC(=O)O)NC1=O` [compound 60, TSL6- SDCHDKFTEC] (SCHDKFTEC-NH2; linker N-2-9 via X3), for which the pIC50 is 5.27.

On to `CSCC[C@@H]1NC(=O)[C@@H]2CCCN2C(=O)[C@@H]2CSCc3cc(cc(c3)OCCCCCCO/N=C/C(=O)N[C@@H](C)C(=O)N2)CSC[C@@H](C(N)=O)NC(=O)[C@H](CCC(=O)O)NC(=O)CNC(=O)[C@H](C)NC(=O)[C@H](C(C)C)NC(=O)[C@H](CC(=O)O)NC1=O` [compound 61, TSL6- SACPMDVAGEC] (ACPMDVAGEC-NH2; linker N-2-10 via X3), for which the pIC50 was 5.22. For `CSCC[C@@H]1NC(=O)[C@@H]2CCCN2C(=O)[C@@H]2CSCc3cc(cc(c3)OCCCCCCO/N=C/C(=O)N[C@@H](C)C(=O)N2)CSC[C@@H](C(N)=O)NC(=O)[C@H](CCC(=O)O)NC(=O)[C@H](CCC(N)=O)NC(=O)[C@H](Cc2c[nH]c3ccccc23)NC(=O)[C@H](C(C)C)NC(=O)[C@H](CC(=O)O)NC1=O` [compound 62, TSL6- SDCHDPPKVC] (ACPMDVWQEC-NH2; linker N-2-10 via X3) the value was 5.19. Consider `CC(C)C[C@@H]1NC(=O)/C=N/OCCCCCCOc2cc3cc(c2)CSC[C@H](NC1=O)C(=O)N[C@@H](Cc1ccc(O)cc1)C(=O)N[C@@H](CCC(=O)O)C(=O)N[C@@H](Cc1c[nH]c2ccccc12)C(=O)N[C@H](CCC(=O)O)C(=O)N[C@@H](Cc1cnc[nH]1)C(=O)N[C@@H](C)C(=O)N[C@H](C(N)=O)CSC3` [compound 63, TSL6- SLCYEWEHAC] (LCYEW[dE]HAC-NH2; linker N-2-9 via X3), for which the pIC50 is 5.10.

In the case of `CSCC[C@@H]1NC(=O)[C@H](CO)NC(=O)[C@H](CC(=O)O)NC(=O)[C@@H]2CCCN2C(=O)[C@@H]2CSCc3cc(cc(c3)OCCCCCCO/N=C/C(=O)N[C@@H](CC(=O)O)C(=O)N2)CSC[C@@H](C(N)=O)NC(=O)[C@H](CO)NC(=O)[C@H](Cc2cnc[nH]2)NC(=O)[C@H](C)NC1=O` [compound 65, TSL6- SDCPDSMAHSC] (DCPDSMAHSC-NH2; linker N-2-10 via X3), the pIC50 is 4.86. For the compound `CC[C@@H](C)[C@@H]1NC(=O)/C=N/OCCCCCCOc2cc3cc(c2)CSC[C@H](NC1=O)C(=O)N[C@@H](CCCNC(=N)N)C(=O)N[C@@H]([C@@H](C)O)C(=O)N[C@@H](CC(=O)O)C(=O)N[C@@H](C(C)C)C(=O)N1CCC[C@H]1C(=O)N[C@@H]([C@@H](C)CC)C(=O)N[C@@H](CC(=O)O)C(=O)N[C@H](C(N)=O)CSC3` [compound 66, TSL6- SICRTDVPIDC] ([aIle]CRTDVPIDC-NH2; linker N-2-10 via X3), the pIC50 is 4.84. With `C[C@@H]1NC(=O)[C@H](CC(=O)O)NC(=O)[C@@H](CC[S+](C)[O-])NC(=O)[C@@H]2CCCN2C(=O)[C@@H]2CSCc3cc(cc(c3)OCCCCCCO/N=C/C(=O)N[C@@H](CCC(N)=O)C(=O)N2)CSC[C@@H](C(N)=O)NC(=O)[C@H]([C@@H](C)O)NC(=O)[C@@H]2CCCN2C1=O` (some centres unmarked) [compound 67, TSL6-SQCP{Ox-Met}DAPTC] (QCP[dMet(O)]DAPTC-NH2; linker N-2-9 via X3), the pIC50 is 4.80.
